Laboratory results reported in ChEMBL document CHEMBL5154925, “Design and Optimization of Thienopyrimidine Derivatives as Potent and Selective PI3Kδ Inhibitors for the Treatment of B-Cell Malignancies” (J Med Chem, 2022).
Activity calls are given as the source filed them. No cut-off for these calls is given here.

Columns and labels:
Pfeiffer [1] = assay: Induction of apoptosis in human Pfeiffer cells assessed as late apoptotic cells at 50 uM incubated for 48 hrs by annexin V-FITC staining based flow cytometry (reference value: 7.87 %); format: functional
Pfeiffer [2] = assay: Induction of apoptosis in human Pfeiffer cells assessed as early apoptotic cells at 50 uM incubated for 48 hrs by annexin V-FITC staining based flow cytometry (reference value: 4.16 %); format: functional
SU-DHL-6 [3] = assay: Induction of apoptosis in human SU-DHL-6 cells assessed as apoptotic rate incubated for 48 hrs by annexin V-FITC staining based flow cytometry; format: functional, cell-based; conditions: dose 2-50 µM, DDE = dose-dependent effect
[4] = target: Serine/threonine-protein kinase mTOR (Homo sapiens, UniProt P42345); assay: Inhibition of mTOR (unknown origin)
[5] = target: Phosphatidylinositol 4,5-bisphosphate 3-kinase catalytic subunit gamma isoform (Mus musculus, UniProt Q9JHG7); assay: Inhibition of PI3Kgamma in C5a stimulated mouse RAW264.7 cells incubated for 10 mins by AlphaLisa assay; format: cell-based
Mus musculus = assay: In vivo inhibition of PI3K signalling in human Pfeiffer cells xenografted in nude mouse assessed as reduction in Akt phosphorylation at Ser473 at 75 mg/kg, po by Western blotting analysis; format: functional, organism-based
[6] = target: T1, Phosphatidylinositol 4,5-bisphosphate 3-kinase catalytic subunit delta isoform (Homo sapiens, UniProt O00329); assay: Inhibition of PI3Kdelta (unknown origin) using PIP2 as substrate measured after 1 hr in presence of ATP by ADP-glo luminescence assay
T1 sequence (O00329 whole entry): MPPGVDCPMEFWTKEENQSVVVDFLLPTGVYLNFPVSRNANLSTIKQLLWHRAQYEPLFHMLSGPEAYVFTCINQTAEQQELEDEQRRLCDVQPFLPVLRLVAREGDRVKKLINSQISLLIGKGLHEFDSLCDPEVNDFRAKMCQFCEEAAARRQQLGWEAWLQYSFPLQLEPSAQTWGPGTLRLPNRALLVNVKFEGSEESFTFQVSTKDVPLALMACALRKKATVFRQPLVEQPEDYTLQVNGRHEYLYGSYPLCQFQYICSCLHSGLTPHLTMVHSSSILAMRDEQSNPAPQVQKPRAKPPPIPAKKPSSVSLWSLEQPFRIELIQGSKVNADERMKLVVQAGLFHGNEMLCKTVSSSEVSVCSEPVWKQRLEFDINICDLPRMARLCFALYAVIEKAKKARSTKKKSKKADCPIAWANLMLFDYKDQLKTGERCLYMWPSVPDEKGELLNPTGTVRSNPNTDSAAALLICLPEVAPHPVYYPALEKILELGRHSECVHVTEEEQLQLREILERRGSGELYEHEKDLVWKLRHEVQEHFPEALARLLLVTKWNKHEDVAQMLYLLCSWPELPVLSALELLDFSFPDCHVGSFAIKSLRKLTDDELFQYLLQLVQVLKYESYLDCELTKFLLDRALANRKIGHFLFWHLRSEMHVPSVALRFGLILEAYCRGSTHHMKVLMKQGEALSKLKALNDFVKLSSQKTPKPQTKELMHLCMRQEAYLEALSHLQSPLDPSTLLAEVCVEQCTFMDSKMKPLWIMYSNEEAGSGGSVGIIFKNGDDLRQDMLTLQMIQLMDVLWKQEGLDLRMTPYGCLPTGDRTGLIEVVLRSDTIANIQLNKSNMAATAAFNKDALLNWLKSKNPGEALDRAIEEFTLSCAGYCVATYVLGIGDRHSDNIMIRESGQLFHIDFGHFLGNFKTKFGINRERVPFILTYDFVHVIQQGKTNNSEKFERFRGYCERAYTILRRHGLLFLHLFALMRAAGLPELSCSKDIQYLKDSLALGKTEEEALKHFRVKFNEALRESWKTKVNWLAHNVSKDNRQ

DOHH-2 = assay: Antiproliferative activity against human DOHH-2 cells assessed as cell growth inhibition incubated for 96 hrs by cell titer glo assay; format: functional, cell-based; conditions: DOHH-2, 96 h
[7] = Plasma protein binding in mouse; format: ADME, cell-free; conditions: read-out: PPB (converted)
Pfeiffer [8] = assay: Antitumour activity against human Pfeiffer cells xenografted in nude mouse assessed as reduction in Ki67 expression in tumor at 75 mg/kg, po BID for 21 days by immunohistochemical analysis; format: functional, organism-based; conditions: time 21.0 day
[9] = Half life in ICR mouse at 3 mg/kg, iv measured upto 24 hrs by LC-MS/MS analysis; format: ADME, organism-based; conditions: in vivo
Pfeiffer [10] = assay: Induction of apoptosis in human Pfeiffer cells assessed as viable […] cells at 50 uM incubated for 48 hrs by annexin V-FITC staining based flow cytometry (reference value: 81.14 %); format: functional
[11] = Toxicity in nude mouse xenografted with human Pfeiffer cells assessed as effect on body weight at 75 mg/kg, po BID for 21 days and measured twice weekly; format: organism-based; conditions: in vivo, 504 h, time 21 day
Pfeiffer [12] = assay: Induction of apoptosis in human Pfeiffer cells assessed as late apoptotic cells at 2 uM incubated for 48 hrs by annexin V-FITC staining based flow cytometry (reference value: 7.87 %); format: functional
[13] = target: T1, Phosphatidylinositol 4,5-bisphosphate 3-kinase catalytic subunit delta isoform; assay: Inhibition of PI3Kdelta in IgM stimulated human Raji cells incubated for 10 mins by AlphaLISA assay; format: cell-based
[14] = Tmax in ICR mouse at 3 mg/kg, iv measured upto 24 hrs by LC-MS/MS analysis; format: ADME, organism-based; conditions: in vivo
[15] = Oral bioavailability in ICR mouse at 30 mg/kg measured upto 24 hrs by LC-MS/MS analysis; format: ADME, organism-based; conditions: in vivo
[16] = Toxicity in nude mouse xenografted with human Pfeiffer cells assessed as effect on body weight at 5 mg/kg, ip BID for 21 days and measured twice weekly; format: organism-based; conditions: in vivo, 504 h, time 21 day
[17] = target: Phosphatidylinositol 4,5-bisphosphate 3-kinase catalytic subunit beta isoform (Homo sapiens, UniProt P42338); assay: Inhibition of PI3Kbeta (unknown origin) using PIP2 as substrate measured after 1 hr in presence of ATP by ADP-glo luminescence assay
Pfeiffer [18] = assay: Induction of apoptosis in human Pfeiffer cells assessed as viable […] cells at 2 uM incubated for 48 hrs by annexin V-FITC staining based flow cytometry (reference value: 81.14 %); format: functional
[19] = AUC (0 to t) in ICR mouse at 3 mg/kg, iv measured upto 24 hrs by LC-MS/MS analysis; format: ADME, organism-based; parameters: time < 24 hrs, dose 3 mg/kg, route iv; conditions: in vivo
JeKo-1 = assay: Antiproliferative activity against human JeKo-1 cells assessed as cell growth inhibition incubated for 96 hrs by cell titer glo assay; format: functional, cell-based; conditions: JeKo-1, 96 h
[20] = target: Phosphatidylinositol 4,5-bisphosphate 3-kinase catalytic subunit alpha isoform (Mus musculus, UniProt P42337); assay: Inhibition of PI3Kalpha in IGF-1 stimulated mouse C2C12 cells incubated for 10 mins by AlphaLISA assay; format: cell-based
[21] = target: Phosphatidylinositol 4,5-bisphosphate 3-kinase catalytic subunit gamma isoform (Homo sapiens, UniProt P48736); assay: Inhibition of PI3Kgamma (unknown origin) using PIP2 as substrate measured after 1 hr in presence of ATP by ADP-glo luminescence assay
SU-DHL-6 [22] = assay: Antiproliferative activity against human SU-DHL-6 cells assessed as cell growth inhibition incubated for 96 hrs by cell titer glo assay; format: functional, cell-based; conditions: SU-DHL-6, 96 h

Sequence of Phosphatidylinositol 4,5-bisphosphate 3-kinase catalytic subunit gamma isoform (Homo sapiens, UniProt P48736) (P48736 whole entry, canonical isoform): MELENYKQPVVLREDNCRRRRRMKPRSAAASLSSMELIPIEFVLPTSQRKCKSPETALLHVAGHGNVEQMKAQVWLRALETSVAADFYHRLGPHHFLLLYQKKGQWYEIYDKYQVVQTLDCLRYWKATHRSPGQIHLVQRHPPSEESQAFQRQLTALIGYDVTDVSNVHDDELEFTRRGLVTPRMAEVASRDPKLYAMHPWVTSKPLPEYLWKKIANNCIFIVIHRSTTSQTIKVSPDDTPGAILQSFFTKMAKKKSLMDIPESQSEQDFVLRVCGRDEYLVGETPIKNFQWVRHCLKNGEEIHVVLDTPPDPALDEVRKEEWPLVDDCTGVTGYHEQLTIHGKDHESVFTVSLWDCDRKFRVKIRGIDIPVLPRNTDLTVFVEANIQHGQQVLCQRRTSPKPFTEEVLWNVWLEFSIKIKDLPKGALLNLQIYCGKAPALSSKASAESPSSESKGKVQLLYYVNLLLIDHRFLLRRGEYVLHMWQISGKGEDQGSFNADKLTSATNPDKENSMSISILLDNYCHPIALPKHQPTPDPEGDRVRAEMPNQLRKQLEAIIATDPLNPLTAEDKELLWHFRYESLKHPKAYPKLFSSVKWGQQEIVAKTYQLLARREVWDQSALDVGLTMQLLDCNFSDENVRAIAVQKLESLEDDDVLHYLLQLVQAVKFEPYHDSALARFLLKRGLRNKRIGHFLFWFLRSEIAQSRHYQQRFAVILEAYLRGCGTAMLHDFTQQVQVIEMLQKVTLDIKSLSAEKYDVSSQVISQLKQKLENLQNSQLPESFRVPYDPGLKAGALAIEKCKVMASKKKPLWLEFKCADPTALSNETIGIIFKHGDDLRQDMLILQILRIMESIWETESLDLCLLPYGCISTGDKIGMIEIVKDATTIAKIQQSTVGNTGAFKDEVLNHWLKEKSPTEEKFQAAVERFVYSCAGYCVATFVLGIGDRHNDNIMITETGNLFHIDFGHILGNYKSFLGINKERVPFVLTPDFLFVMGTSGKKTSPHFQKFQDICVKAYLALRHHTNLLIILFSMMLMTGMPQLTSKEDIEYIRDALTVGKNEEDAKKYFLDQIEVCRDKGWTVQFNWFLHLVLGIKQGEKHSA
Sequence of Phosphatidylinositol 4,5-bisphosphate 3-kinase catalytic subunit gamma isoform (Mus musculus, UniProt Q9JHG7) (Q9JHG7 whole entry, canonical isoform): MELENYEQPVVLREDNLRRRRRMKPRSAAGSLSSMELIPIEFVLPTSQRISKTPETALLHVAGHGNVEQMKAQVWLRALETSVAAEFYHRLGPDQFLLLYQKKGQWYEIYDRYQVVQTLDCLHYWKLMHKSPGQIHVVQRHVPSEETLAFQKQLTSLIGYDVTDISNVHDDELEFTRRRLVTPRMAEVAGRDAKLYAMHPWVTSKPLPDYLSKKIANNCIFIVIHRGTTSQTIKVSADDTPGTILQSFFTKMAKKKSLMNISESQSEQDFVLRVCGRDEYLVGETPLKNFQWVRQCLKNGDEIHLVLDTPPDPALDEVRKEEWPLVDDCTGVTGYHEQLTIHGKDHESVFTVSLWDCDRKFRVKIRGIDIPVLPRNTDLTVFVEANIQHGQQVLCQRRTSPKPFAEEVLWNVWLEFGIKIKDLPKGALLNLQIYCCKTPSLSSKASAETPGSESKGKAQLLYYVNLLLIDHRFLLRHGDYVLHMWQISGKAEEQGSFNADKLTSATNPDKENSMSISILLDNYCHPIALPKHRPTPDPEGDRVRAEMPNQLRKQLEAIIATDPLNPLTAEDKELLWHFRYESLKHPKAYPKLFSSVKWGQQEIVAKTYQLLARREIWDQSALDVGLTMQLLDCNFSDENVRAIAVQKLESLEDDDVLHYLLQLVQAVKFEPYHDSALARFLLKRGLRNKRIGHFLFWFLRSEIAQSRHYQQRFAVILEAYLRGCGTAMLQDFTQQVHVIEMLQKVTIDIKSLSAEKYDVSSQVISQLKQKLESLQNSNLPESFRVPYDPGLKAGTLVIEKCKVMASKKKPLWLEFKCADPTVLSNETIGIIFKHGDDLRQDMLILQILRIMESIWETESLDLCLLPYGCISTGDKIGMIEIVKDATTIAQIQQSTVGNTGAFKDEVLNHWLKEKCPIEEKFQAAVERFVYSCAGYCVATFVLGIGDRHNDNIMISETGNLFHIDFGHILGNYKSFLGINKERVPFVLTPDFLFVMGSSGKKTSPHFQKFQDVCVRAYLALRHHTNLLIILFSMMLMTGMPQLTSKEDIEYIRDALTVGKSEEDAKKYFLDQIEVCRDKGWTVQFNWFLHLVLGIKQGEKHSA
Sequence of Phosphatidylinositol 4,5-bisphosphate 3-kinase catalytic subunit alpha isoform (P42337 whole entry, canonical isoform): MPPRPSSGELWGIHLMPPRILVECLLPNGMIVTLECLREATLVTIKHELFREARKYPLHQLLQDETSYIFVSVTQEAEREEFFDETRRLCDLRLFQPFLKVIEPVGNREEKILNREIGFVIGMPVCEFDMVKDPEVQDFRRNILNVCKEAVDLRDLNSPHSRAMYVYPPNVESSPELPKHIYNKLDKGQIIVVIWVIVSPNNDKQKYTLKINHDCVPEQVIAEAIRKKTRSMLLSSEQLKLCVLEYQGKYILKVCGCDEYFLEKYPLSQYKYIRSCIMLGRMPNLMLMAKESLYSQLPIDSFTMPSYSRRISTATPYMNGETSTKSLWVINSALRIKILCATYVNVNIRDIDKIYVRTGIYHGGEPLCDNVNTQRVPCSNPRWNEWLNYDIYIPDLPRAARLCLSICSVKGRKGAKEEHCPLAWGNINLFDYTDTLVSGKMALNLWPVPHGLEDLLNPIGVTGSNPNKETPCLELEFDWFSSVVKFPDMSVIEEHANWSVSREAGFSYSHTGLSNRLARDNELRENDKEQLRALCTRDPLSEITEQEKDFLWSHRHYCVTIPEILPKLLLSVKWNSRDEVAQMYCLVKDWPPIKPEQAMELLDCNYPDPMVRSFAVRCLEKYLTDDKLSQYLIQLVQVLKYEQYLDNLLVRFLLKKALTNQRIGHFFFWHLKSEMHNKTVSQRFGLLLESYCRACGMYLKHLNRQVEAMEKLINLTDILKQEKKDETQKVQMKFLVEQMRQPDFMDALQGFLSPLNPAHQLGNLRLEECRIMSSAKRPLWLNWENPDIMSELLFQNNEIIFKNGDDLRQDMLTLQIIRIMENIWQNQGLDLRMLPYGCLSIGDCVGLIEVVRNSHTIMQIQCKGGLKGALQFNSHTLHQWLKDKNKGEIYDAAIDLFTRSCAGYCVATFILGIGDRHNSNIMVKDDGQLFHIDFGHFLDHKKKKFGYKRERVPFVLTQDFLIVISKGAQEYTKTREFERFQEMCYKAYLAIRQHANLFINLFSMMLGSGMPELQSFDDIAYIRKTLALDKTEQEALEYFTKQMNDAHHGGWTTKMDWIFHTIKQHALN
Sequence of Phosphatidylinositol 4,5-bisphosphate 3-kinase catalytic subunit beta isoform (P42338 whole entry, canonical isoform): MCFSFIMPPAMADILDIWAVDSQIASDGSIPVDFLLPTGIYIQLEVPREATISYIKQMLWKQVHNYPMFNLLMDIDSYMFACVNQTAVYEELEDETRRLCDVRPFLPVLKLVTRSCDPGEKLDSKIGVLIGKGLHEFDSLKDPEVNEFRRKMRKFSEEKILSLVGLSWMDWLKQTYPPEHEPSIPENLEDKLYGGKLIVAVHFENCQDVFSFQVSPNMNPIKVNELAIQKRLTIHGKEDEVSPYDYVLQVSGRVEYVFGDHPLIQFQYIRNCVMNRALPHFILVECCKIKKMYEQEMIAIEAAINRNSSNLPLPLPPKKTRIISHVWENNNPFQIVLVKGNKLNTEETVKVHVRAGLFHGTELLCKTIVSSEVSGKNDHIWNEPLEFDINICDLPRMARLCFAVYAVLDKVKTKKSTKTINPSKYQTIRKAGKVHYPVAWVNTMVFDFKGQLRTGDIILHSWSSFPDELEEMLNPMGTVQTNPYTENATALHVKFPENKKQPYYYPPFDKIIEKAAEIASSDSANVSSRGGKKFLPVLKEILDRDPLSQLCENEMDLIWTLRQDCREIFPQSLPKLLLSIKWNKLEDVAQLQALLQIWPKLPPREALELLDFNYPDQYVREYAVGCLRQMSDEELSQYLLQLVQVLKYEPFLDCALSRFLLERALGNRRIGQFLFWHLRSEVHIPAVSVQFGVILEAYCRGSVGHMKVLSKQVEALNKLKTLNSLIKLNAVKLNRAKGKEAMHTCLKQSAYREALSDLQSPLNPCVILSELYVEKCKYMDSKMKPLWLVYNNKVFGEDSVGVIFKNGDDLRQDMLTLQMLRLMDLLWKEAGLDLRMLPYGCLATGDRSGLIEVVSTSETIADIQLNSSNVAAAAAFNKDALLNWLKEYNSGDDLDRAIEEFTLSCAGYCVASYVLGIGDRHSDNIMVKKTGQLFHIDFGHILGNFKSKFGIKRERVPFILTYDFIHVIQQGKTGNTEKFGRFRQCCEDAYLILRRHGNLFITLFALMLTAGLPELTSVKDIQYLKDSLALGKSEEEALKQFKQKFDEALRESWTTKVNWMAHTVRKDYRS

- IC50 [4]: > 10000 nM
- IC50 [5]: 8060 nM
- IC50 [6]: 5.7 nM
- fraction unbound [7]: 0.029
- half-life [9]: 104 min
- IC50 [13]: 137 nM
- Tmax [14]: 4.8 min
- bioavailability [15]: 7.49%
- IC50 [17]: 972 nM
- AUC(0-t) at 24 h [19]: 1370 ng·h/mL
- IC50 [20]: 50200 nM
- IC50 [21]: 2680 nM
- IC50 (SU-DHL-6 [22]): 1430 nM
Compound: CCC(=O)N1CC[C@H](Nc2ncnc3sc(-c4cnc(OC)c(OC)c4)cc23)C1
- Activity (Pfeiffer [1]): 43.33%
- Activity (Pfeiffer [2]): 15.74%
- Activity (SU-DHL-6 [3]): Dde
- inhibition (Mus musculus): Active
- IC50 (DOHH-2): 10600 nM
- Activity (Pfeiffer [8]): Active
- Activity (Pfeiffer [10]): 33.75%
- Activity [11]: 10%
- Activity (Pfeiffer [12]): 12.63%
- Activity [16]: 10%
- Activity (Pfeiffer [18]): 76.43%
- IC50 (JeKo-1): 14700 nM
